Values of other authors as cited in patent publication US20060128641A1, “Levamisole, avermectins or similar in pyrrolidone solvent” (priority 2002, published 2006).

Experiments:
[1] = test system: Cooperia; details: background table, cattle parasites
[2] = test system: Ostertagia; details: background table, cattle parasites
[3] = previously found
[4] = background

c1ccc([C@H]2CN3CCSC3=N2)cc1 [Levamisole]
Cooperia Efficacy [1]: Good | Ostertagia Efficacy [2]: Poor | pH required for stability [3]: less than 4 | solubility in water [4]: water soluble
